± gives the expanded uncertainty stated by the source.
How the values were obtained:
[1] = Crystal; DTA
[2] = Molar enthalpy of transition or fusion; details: Crystal; DSC

C[C@@H]1O[C@@H](O[C@H]2[C@H](Oc3cc(O)c(C(=O)CCc4ccc(O)cc4)c(O)c3)O[C@H](CO)[C@@H](O)[C@@H]2O)[C@H](O)[C@H](O)[C@H]1O [naringin dihydrochalcone]
Normal melting temperature [1]: 159.07 ± 0.53 °C
Molar enthalpy of transition or fusion [2]: 7.08 ± 0.454 kcal/mol

— the NIST ThermoML archive (doi:10.1021/acs.jced.6b00543)
